How the values were obtained:
AHR [1] = biological target: T1, AHR (Homo sapiens, UniProt P35869); assay: In vitro assay 2: agonism in human cell line (transactivation assay)
T1 sequence (P35869 11-848): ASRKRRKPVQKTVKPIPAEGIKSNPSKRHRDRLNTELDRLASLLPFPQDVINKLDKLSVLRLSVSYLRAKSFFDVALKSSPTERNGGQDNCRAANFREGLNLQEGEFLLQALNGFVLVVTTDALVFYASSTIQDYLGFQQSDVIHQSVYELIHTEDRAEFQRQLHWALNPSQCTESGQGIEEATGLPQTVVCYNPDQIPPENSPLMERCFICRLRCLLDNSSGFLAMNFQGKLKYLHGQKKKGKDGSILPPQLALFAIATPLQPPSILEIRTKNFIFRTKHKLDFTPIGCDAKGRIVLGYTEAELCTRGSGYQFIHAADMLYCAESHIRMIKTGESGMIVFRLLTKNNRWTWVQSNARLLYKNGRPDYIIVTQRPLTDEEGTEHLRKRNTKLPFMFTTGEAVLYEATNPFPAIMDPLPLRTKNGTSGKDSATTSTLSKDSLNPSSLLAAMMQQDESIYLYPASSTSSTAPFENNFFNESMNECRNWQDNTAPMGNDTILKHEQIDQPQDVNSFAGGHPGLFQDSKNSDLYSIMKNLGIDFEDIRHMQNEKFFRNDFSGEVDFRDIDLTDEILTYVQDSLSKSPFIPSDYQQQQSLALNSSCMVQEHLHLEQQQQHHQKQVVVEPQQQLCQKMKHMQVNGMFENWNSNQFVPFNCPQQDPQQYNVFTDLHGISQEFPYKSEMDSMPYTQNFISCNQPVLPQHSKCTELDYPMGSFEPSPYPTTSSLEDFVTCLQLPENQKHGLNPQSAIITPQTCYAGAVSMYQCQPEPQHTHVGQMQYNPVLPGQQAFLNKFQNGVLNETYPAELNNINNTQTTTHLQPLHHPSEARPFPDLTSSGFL

AHR [2] = biological target: T1, AHR; assay: In vitro assay 1: antagonism in human cell line (transactivation assay, kynurenic acid prestimulated); conditions: Assay 1: AHR-luc Hum Antagonism IC50 [M], 150 μM kynurenic acid, 20 hours, firefly luciferase
[3] = Assay 2: AHR-luc Hum Agonism IC50 [M], no kynurenic acid, 20 hours, firefly luciferase
[4] = read-out: Assay 2: AHR-luc Hum Agonism IC50, no kynurenic acid, 20 hours, firefly luciferase

Row | SMILES | IC50 (AHR [1]; [3]) | IC50 (AHR [2]) | IC50 (AHR [1]; [4])
1 | O=C(N[C@@H](CO)Cc1ccccc1)c1cc(-c2ccc(C(F)(F)F)cc2)nn(-c2cccc(F)c2)c1=O [Example 252, 2-(3-Fluorophenyl)-N-[(2R)-1-hydroxy-3-phenylpropan-2-yl]-3-oxo-6-[4-(trifluoromethyl)phenyl]-2,3-dihydropyridazine-4-carboxamide] | > 2e-05 M | 6.43e-06 M | –
2 | C[C@@H](O)CCNC(=O)c1cc(-c2ccc(C(F)(F)F)cc2)nn(-c2cccc(F)c2)c1=O (single isomer, unassigned) [Example 330] | > 2e-05 M | 1.21e-07 M | –
3 | O=C(NCC(O)C(F)F)c1cc(-c2ccc(C(F)(F)F)cc2)nn(-c2cccc(F)c2)c1=O (racemic) [Example 261, N-[(2RS)-3,3-Difluoro-2-hydroxypropyl]-2-(3-fluorophenyl)-3-oxo-6-[4-(trifluoromethyl)phenyl]-2,3-dihydropyridazine-4-carboxamide] | > 2e-05 M | 2.26e-08 M | –
4 | O=C(NCC(O)C1CC1)c1cc(-c2ccc(Cl)cc2)nn(-c2cccc(F)c2)c1=O (racemic) [Example 190, 6-(4-Chlorophenyl)-N-[(2RS)-2-cyclopropyl-2-hydroxyethyl]-2-(3-fluorophenyl)-3-oxo-2,3-dihydropyridazine-4-carboxamide] | > 2e-05 M | 2.77e-07 M | –
5 | O=C(NCC(O)C(F)F)c1cc(-c2ccc(Cl)cc2)nn(-c2cccc(F)c2)c1=O (single isomer, unassigned; (+)) [Example 223, (+)-6-(4-Chlorophenyl)-N-(3,3-difluoro-2-hydroxypropyl)-2-(3-fluorophenyl)-3-oxo-2,3-dihydropyridazine-4-carboxamide] | – | 1.28e-07 M | > 2e-05 M
6 | O=C(NCC(O)C(F)(F)F)c1cc(-c2ccc(Cl)c(Cl)c2)nn(-c2cccc(F)c2)c1=O (single isomer, unassigned) [Example 308, 6-(3,4-Dichlorophenyl)-2-(3-fluorophenyl)-3-oxo-N-(3,3,3-trifluoro-2-hydroxypropyl)-2,3-dihydropyridazine-4-carboxamide] | > 2e-05 M | 1.77e-07 M | –
7 | O=C(NCC(O)C(F)(F)F)c1cc(-c2ccc(Cl)cc2)nn(-c2ccccc2)c1=O (single isomer, unassigned) [Example 77, 6-(4-chlorophenyl)-3-oxo-2-phenyl-N-(3,3,3-trifluoro-2-hydroxypropyl)-2,3-dihydropyridazine-4-carboxamide] | > 2e-05 M | 7.28e-08 M | –
8 | O=C(NC(CO)C(F)(F)F)c1cc(-c2ccc(Cl)cc2)nn(-c2cccc(F)c2)c1=O (single isomer, unassigned; (-)) [Example 98, (−)-6-(4-Chlorophenyl)-2-(3-fluorophenyl)-3-oxo-N-(1,1,1-trifluoro-3-hydroxypropan-2-yl)-2,3-dihydropyridazine-4-carboxamide] | > 2e-05 M | > 2e-05 M | –
9 | O=C(N[C@@H](CO)Cc1ccccc1)c1cc(-c2ccc(Cl)cc2)nn(-c2cccc(F)c2)c1=O [Example 219, (+)-6-(4-Chlorophenyl)-2-(3-fluorophenyl)-N-[(2R)-1-hydroxy-3-phenylpropan-2-yl]-3-oxo-2,3-dihydropyridazine-4-carboxamide] | > 2e-05 M | 3.38e-06 M | –
10 | CN(C)c1ccc(-c2cc(C(=O)N[C@H](CO)C(F)(F)F)c(=O)n(-c3cccc(F)c3)n2)cc1Cl [Example 373, 6-[3-chloro-4-(dimethylamino)phenyl]-2-(3-fluorophenyl)-3-oxo-N-[(2R)-1,1,1-trifluoro-3-hydroxypropan-2-yl]-2,3-dihydropyridazine-4-carboxamide] | > 2e-05 M | 1.69e-08 M | –
11 | COc1ccc(-c2cc(C(=O)N[C@@H]3CCC[C@H]3O)c(=O)n(-c3cccc(F)c3)n2)cc1 (relative stereo) [Example 154, 2-(3-Fluorophenyl)-N-(trans-2-hydroxycyclopentyl)-6-(4-methoxyphenyl)-3-oxo-2,3-dihydropyridazine-4-carboxamide] | > 2e-05 M | 1.69e-07 M | –
12 | O=C(NC(CO)C1CCOC1)c1cc(-c2ccc(OC(F)(F)F)cc2)nn(-c2cccc(F)c2)c1=O (stereo not drawn) [Example 174, 2-(3-Fluorophenyl)-N-[2-hydroxy-1-(tetrahydrofuran-3-yl)ethyl]-3-oxo-6-[4-(trifluoromethoxy)phenyl]-2,3-dihydropyridazine-4-carboxamide] | > 2e-05 M | 3.33e-08 M | –
13 | C[C@@H](O)CCNC(=O)c1cc(-c2ccc(Cl)cc2)nn(-c2cccc(F)c2)c1=O [Example 204, (−)-6-(4-Chlorophenyl)-2-(3-fluorophenyl)-N-[(3R)-3-hydroxybutyl]-3-oxo-2,3-dihydropyridazine-4-carboxamide] | > 2e-05 M | 3.85e-07 M | –

Continued by falling IC50 (AHR [2]), values first:

Row | IC50 (AHR [1]; [3]) | IC50 (AHR [2]) | IC50 (AHR [1]; [4]) | SMILES
14 | > 2e-05 M | 1.56e-06 M | – | CN1CCC(O)(CNC(=O)c2cc(-c3ccc(Cl)cc3)nn(-c3cccc(F)c3)c2=O)CC1 [Example 234, 6-(4-Chlorophenyl)-2-(3-fluorophenyl)-N-[(4-hydroxy-1-methylpiperidin-4-yl)methyl]-3-oxo-2,3-dihydropyridazine-4-carboxamide]
15 | > 2e-05 M | 4.05e-07 M | – | O=C(N[C@H]1CC[C@@H]1O)c1cc(-c2ccc(Cl)cc2)nn(-c2cccc(F)c2)c1=O (single isomer, unassigned) [Example 335, (−)-6-(4-chlorophenyl)-2-(3-fluorophenyl)-N-(trans-2-hydroxycyclobutyl)-3-oxo-2,3-dihydropyridazine-4-carboxamide]
16 | > 2e-05 M | 3.02e-07 M | – | C[C@H](CO)NC(=O)c1cc(-c2ccc(Cl)cc2)nn(-c2cccc(F)c2)c1=O [Example 24, 6-(4-Chlorophenyl)-2-(3-fluorophenyl)-N-[(2R)-1-hydroxypropan-2-yl]-3-oxo-2,3-dihydropyridazine-4-carboxamide]
17 | > 2e-05 M | 2.22e-07 M | – | N#Cc1cccc(-n2nc(-c3ccc(Cl)cc3)cc(C(=O)NCC(O)C(F)(F)F)c2=O)c1 (single isomer, unassigned) [Example 363, 6-(4-chlorophenyl)-2-(3-cyanophenyl)-3-oxo-N-(3,3,3-trifluoro-2-hydroxypropyl)-2,3-dihydropyridazine-4-carboxamide]
18 | > 2e-05 M | 2.22e-07 M | – | O=C(N[C@H](CO)C1CCCC1)c1cc(-c2ccc(Cl)cc2)nn(-c2cccc(F)c2)c1=O [Example 157, 6-(4-Chlorophenyl)-N-[(1S)-1-cyclopentyl-2-hydroxyethyl]-2-(3-fluorophenyl)-3-oxo-2,3-dihydropyridazine-4-carboxamide]
19 | > 2e-05 M | 2.14e-07 M | – | C[C@@H](CO)NC(=O)c1cc(-c2ccc(Cl)cc2)nn(-c2ccccc2)c1=O [Example 80, 6-(4-chlorophenyl)-N-[(2S)-1-hydroxypropan-2-yl]-3-oxo-2-phenyl-2,3-dihydropyridazine-4-carboxamide]
20 | – | 2e-07 M | > 2e-05 M | CC(CCO)NC(=O)c1cc(-c2ccc(Cl)cc2)nn(-c2cccc(F)c2)c1=O (single isomer, unassigned; (-)) [Example 208, (−)-6-(4-Chlorophenyl)-2-(3-fluorophenyl)-N-(4-hydroxybutan-2-yl)-3-oxo-2,3-dihydropyridazine-4-carboxamide]
21 | – | 1.97e-07 M | > 2e-05 M | O=C(NCC(O)C1CC1)c1cc(-c2ccc(Cl)cc2)nn(-c2cccc(F)c2)c1=O (single isomer, unassigned; (+)) [Example 192, (+)-6-(4-Chlorophenyl)-N-(2-cyclopropyl-2-hydroxyethyl)-2-(3-fluorophenyl)-3-oxo-2,3-dihydropyridazine-4-carboxamide]
22 | > 2e-05 M | 8.14e-08 M | – | C[C@H](O)[C@H](C)NC(=O)c1cc(-c2ccc(Cl)c(F)c2)nn(-c2cccc(F)c2)c1=O (relative stereo) [Example 290, rel-6-(4-Chloro-3-fluorophenyl)-2-(3-fluorophenyl)-N-[(2S,3S)-3-hydroxybutan-2-yl]-3-oxo-2,3-dihydropyridazine-4-carboxamide]
23 | > 2e-05 M | 6.25e-08 M | – | CC(CCO)NC(=O)c1cc(-c2ccc(Cl)cc2)nn(-c2cccc(F)c2)c1=O (racemic) [Example 206, 6-(4-Chlorophenyl)-2-(3-fluorophenyl)-N-[(2RS)-4-hydroxybutan-2-yl]-3-oxo-2,3-dihydropyridazine-4-carboxamide]
24 | > 2e-05 M | 4.7e-08 M | – | C[C@@H](NC(=O)c1cc(-c2ccc(OC(F)(F)F)cc2)nn(-c2cccc(F)c2)c1=O)C(C)(C)O [Example 381, 2-(3-fluorophenyl)-N-[(2R)-3-hydroxy-3-methylbutan-2-yl]-3-oxo-6-[4-(trifluoromethoxy)phenyl]-2,3-dihydropyridazine-4-carboxamide]

From US11040035B2, “3-oxo-2,6-diphenyl-2,3-dihydropyridazine-4-carboxamides” (BAYER PHARMA AKTIENGESELLSCHAFT, priority 2016, dated 2021)
